Assays:
PAR2 [1] = molecular target: T1, PAR2 (Homo sapiens (Human), UniProt P55085); experiment: Trypsin activated FLPR Ca2+ mobilization assay for PAR2 antagonist activity; type: cell-based
Procedure: Trypin Activated FLPR Assay:
Protocol for Testing Compounds for PAR2 Antagonist Activity Using a Ca2+ Mobilization Assay
Calcium mobilization was measured using 1321N1 cells stably expressing human PAR2. Cells were seeded in 384-well plates at 4,000 cells per well in 20 μl DMEM with Glutamax supplemented with 10% FBS and incubated for 18-24 h at 37° C., 5% CO2 and 95% humidity. […] The addition was done using a FLIPR^TETRA (384-well head, Molecular Devices) and the response was read simultaneously to detect any agonist activity.

PAR2 [2] = molecular target: T1, PAR2; experiment: FLPR dissociation rate assay (PAR2 mean residence time); type: cell-based; details: cells washed after compound incubation (60-240 min); peptide agonist SLIGLR-NH2; read-out: FLPR Residence time t1/2
From the text: FLPR Dissociation Rate Assay: Protocol for Testing Compounds for PAR2 Mean Residence Time
The peptide agonist SLIGLR-NH2 (ECso) was used in place of trypsin.

PAR2 [3] = molecular target: T1, PAR2; experiment: IP-One HTRF assay for PAR2 antagonist activity (IP1 production); type: cell-based
Procedure: Protocol for Testing Compounds for PAR2 Antagonist Activity Using an IP-One HTRF Assay
Inositol monophosphate (IP1) production were measured in 1321N1 cells stably expressing human PAR2 using an IP-One HTRF assay kit (Cisbio). […] After 60 min at 37° C. cells were lysed and IP1 concentrations were detected according to the manufacturers protocol (Cisbio). Data were normalized to IP1 concentrations using a IP1 standard curve according to the manufacturers protocol (Cisbio).

PAR1 = PAR1 (Homo sapiens (Human), UniProt P25116); experiment: β-arrestin type assay by DiscoverX against PAR1
[4] = hPAR2 FLPR (Trypsin) IC50 (μM), 1321N1 cells stably expressing human PAR2, agonist Trypsin, Vorapaxar present to block PAR1
[5] = hPAR2 IPpone IC50 (μM), 1321N1 cells stably expressing human PAR2, agonist SLIGRL-NH2
[6] = 1321N1 cells stably expressing human PAR2, agonist Trypsin, Vorapaxar present to block PAR1, read-out: hPAR2 FLPR (Trypsin) IC50
[7] = 1321N1 cells stably expressing human PAR2, agonist SLIGRL-NH2, read-out: hPAR2 IPpone IC50

T1 sequence (P55085 26-397): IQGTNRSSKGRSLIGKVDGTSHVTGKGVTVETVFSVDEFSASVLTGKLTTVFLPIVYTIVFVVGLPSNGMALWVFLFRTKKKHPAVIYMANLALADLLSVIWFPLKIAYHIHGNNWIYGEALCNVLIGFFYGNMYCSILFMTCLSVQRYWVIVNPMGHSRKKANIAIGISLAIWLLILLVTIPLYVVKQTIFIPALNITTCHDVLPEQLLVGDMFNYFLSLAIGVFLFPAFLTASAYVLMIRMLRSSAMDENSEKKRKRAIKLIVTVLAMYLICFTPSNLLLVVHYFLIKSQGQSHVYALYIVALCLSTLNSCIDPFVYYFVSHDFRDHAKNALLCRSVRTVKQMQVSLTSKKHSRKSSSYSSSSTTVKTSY
PAR1, sequence (P25116 22-425): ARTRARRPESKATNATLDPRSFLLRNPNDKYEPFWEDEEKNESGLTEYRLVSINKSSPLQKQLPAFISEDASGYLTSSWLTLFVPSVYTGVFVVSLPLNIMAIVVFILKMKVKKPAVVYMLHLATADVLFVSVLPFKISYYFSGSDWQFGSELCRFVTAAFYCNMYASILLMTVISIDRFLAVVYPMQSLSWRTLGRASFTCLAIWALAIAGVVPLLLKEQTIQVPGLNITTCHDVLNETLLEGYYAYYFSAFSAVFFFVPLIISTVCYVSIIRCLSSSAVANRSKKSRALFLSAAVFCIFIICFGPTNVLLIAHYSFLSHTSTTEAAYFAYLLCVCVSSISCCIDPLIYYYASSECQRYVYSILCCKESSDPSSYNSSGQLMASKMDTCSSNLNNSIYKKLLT

Compound	residence time (PAR2 [2]) [min]	IC50 (PAR2 [1]; [4]) [µM]	IC50 (PAR2 [3]; [5]) [µM]	IC50 (PAR2 [1]; [6]) [µM]	IC50 (PAR2 [3]; [7]) [µM]	other results
OC(c1ncc[nH]1)c1ccc(F)cc1N1CCCC1 (single isomer, unassigned) [Example 16, (4-Fluoro-2-(pyrrolidin-1-yl)phenyl)(1H-imidazol-2-yl)methanol]	161	–	–	–	–	IC50 (PAR2 [1]; hPAR2 FLPR (Trypsin) IC50 (μM)): 10.1 µM; IC50 (PAR2 [3]; hPAR2 IPpone IC50 (μM)): 0.96 µM
CCc1ccc2c(F)ccc(C(O)c3ncc[nH]3)n12 (single isomer, unassigned) [Example 35, (3-Ethyl-8-fluoroindolizin-5-yl)(1H-imidazol-2-yl)methanol]	–	–	–	–	–	IC50 (PAR1): > 50 µM
CCc1coc2c(F)ccc([C@H](O)c3ncc[nH]3)c12 (single isomer, unassigned) [Example 42]	119	3.09	0.33	–	–	–
CCCc1cc(F)ccc1[C@H](O)c1ncc[nH]1 [Example 3, (S)-(4-Fluoro-2-propylphenyl)(1H-imidazol-2-yl)methanol]	62	–	–	3.92	1.29	IC50 (PAR1): > 50 µM
CC(C)c1ccc2c(F)ccc(C(O)c3ncc[nH]3)n12 (centres unmarked) [Example 38, (8-Fluoro-3-isopropylindolizin-5-yl)(1H-imidazol-2-yl)methanol]	–	13.9	1.91	–	–	–
CCc1coc2c(F)ccc(C(O)c3ncc[nH]3)c12 (centres unmarked) [Example 40, (3-Ethyl-7-fluorobenzofuran-4-yl)(1H-imidazol-2-yl)methanol]	–	4.9	0.75	–	–	–
OC(c1ncc[nH]1)c1ccc(F)c2occ(C3CC3)c12 (centres unmarked) [Example 43, (3-Cyclopropyl-7-fluorobenzofuran-4-yl)(1H-imidazol-2-yl)methanol]	–	–	–	4.58	0.86	–
Cc1coc2c(F)ccc(C(O)c3ncc[nH]3)c12 (centres unmarked) [Example 52, (7-Fluoro-3-methylbenzofuran-4-yl)(1H-imidazol-2-yl)methanol]	–	–	–	3.27	0.97	–
CCn1ccc2c(F)ccc(C(O)c3ncc[nH]3)c21 (centres unmarked) [Example 57, (1-Ethyl-4-fluoro-1H-indol-7-yl)(1H-imidazol-2-yl)methanol]	–	–	–	9.03	1.65	–
OC(c1ncc[nH]1)c1ccc(F)c2ccc(Cl)n12 (centres unmarked) [Example 61, (3-Chloro-8-fluoro-indolizin-5-yl)-(1H-imidazol-2-yl)methanol]	–	–	–	3.1	1.9	–

Reference: patent US10550089B2, “Inhibitors of protease-activated receptor-2” (Heptares Therapeutics Limited, priority 2016, dated 2020)
